The target in one data set is T1, rat M2 mAChR (Rattus norvegicus, UniProt P10980).
T1 construct: host or cells: FlpIn CHO cells (Invitrogen)
T1 sequence (P10980 1-466): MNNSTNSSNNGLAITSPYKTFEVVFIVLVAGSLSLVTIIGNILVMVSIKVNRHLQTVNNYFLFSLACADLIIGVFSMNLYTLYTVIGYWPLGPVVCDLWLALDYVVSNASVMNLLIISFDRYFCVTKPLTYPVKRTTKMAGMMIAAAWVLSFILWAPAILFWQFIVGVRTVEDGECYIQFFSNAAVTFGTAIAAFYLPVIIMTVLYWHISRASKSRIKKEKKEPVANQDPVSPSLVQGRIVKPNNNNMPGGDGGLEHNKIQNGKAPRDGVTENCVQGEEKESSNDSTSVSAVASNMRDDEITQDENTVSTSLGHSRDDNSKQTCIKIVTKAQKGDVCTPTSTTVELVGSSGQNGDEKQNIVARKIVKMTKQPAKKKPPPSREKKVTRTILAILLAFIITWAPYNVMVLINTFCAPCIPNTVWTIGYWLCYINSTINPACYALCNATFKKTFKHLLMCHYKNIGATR
Nature of the data set: [3H]NMS equilibrium binding in whole CHO-rM2 cells. The following applies: rM2, [3H]NMS binding. The method, then:
Rat mAChR subtypes (rM1–rM5; Origene) and human cannabinoid 1 receptor (hCB1; ref. [24]) constructs were isogenically integrated into FlpIn CHO cells (Invitrogen) and cells were selected in the presence of […] hygromycin B at 37 °C, 5% CO2, as previously described for the human M1 mAChR [25]. All cells were sub-cultured and seeded as previously described for the CHO-hM5 cells.
(§1) [^3H]NMS equilibrium binding assays in CHO-rM1 to CHO-rM5 cells were performed as previously described for CHO-hM5 cells. For [^35S]GTPγS binding, CHO-rM2 and CHO-rM4 cell membranes were prepared as described in Supplementary information. Membrane [^35S]GTPγS binding was performed as described in ref [26]., except GDP and [^35S]GTPγS concentrations were 1 μM and 0.3 nM, respectively. [^3H](+)-pentazocine binding was performed as described in ref. [27].

Another data set has as its target T2, rat M1 mAChR (Rattus norvegicus, UniProt P08482).
T2 construct: host or cells: FlpIn CHO cells (Invitrogen)
T2 sequence (P08482 1-460): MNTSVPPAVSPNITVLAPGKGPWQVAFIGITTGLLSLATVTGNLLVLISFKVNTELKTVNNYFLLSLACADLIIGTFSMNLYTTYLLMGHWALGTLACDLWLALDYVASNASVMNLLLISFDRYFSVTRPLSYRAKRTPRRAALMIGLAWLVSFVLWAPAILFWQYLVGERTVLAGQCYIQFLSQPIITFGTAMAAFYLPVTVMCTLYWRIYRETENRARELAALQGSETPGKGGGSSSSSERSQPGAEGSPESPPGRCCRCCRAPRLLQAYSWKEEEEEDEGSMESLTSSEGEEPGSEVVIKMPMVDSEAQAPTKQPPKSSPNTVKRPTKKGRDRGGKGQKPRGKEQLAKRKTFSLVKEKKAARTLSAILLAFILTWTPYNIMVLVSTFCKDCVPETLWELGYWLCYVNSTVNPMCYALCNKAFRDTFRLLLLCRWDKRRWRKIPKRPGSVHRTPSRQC
Nature of the data set: ACh-stimulated IP accumulation (IP-One) in CHO-rM1 cells. In kind it is cell-based. The method, then:
The IP-One assay kit (Cisbio) was used for the direct quantitative measurement of inositol phosphate (IP) accumulation in CHO-rM1, CHO-rM3 or CHO-rM5 cells, as described previously. The CHO-hCB1 pERK1/2 assays were performed as described in ref [24].

Another data set concerns the target T3, rat M4 mAChR (Rattus norvegicus, UniProt P08485).
T3 construct: host or cells: FlpIn CHO cells (Invitrogen)
T3 sequence (P08485 1-478): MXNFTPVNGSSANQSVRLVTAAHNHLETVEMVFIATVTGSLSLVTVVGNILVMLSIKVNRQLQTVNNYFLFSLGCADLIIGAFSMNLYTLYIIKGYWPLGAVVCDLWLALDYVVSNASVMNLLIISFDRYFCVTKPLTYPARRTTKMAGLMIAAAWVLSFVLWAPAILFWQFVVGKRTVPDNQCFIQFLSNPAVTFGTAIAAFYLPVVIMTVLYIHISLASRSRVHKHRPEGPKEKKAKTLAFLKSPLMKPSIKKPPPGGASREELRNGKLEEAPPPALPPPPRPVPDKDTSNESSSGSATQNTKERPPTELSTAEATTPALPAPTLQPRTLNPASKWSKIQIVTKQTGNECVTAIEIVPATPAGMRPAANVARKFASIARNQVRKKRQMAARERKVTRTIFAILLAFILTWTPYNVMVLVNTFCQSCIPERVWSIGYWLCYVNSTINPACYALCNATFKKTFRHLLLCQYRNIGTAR
Nature of the data set: ACh-stimulated [35S]GTPγS binding in CHO-rM4 cell membranes. Type of data set: biochemical. The settings on record: rM4, [35S]GTPγS binding. As to the method: as §1
For orientation: GTPγS is a poorly hydrolysed GTP analogue; its binding reports G protein activation.

The target in another data set is T4, σ1 receptor (Mus musculus, UniProt O55242).
T4 construct: from tissue; host or cells: mouse brain homogenates
T4 sequence (O55242 whole entry): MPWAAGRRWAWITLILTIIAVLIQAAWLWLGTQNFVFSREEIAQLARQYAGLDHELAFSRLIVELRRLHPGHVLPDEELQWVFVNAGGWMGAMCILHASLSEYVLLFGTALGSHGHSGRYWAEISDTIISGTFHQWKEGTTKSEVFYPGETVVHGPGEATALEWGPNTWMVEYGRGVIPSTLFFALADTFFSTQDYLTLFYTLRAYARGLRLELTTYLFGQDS
Nature of the data set: [3H](+)-pentazocine binding in mouse brain homogenates. The settings on record: ML375 at concentrations up to 10 μM. As to the method:
as §1
Sigma-1 data are expressed as a percentage of specific [^3H]-(+)-pentazocine binding; ERK1/2 phosphorylation data are expressed percentage of the response to 10% FBS. Data represent the mean ± S.E.M. of 5-7 independent experiments performed in duplicate or triplicate.

The subject of data set [1] is ethanol-preferring (iP) rats. Nature of the data set: Operant ethanol self-administration, oral dosing. In kind it is in vivo, rat. An excerpt: Male iP rats (n = 14) were trained to self-administer 10% (v/v) ethanol via lever presses under FR3 operant conditions for approximately 12 weeks, in the presence of a 1-s light conditioned stimulus (CS+) occurring when the ethanol solution was delivered and an olfactory cue (S+ cue; one drop of vanilla essence, placed directly below the ethanol-paired (active) lever), as previously described, followed by surgery and testing. […] Rats were then given 7 days of ethanol self-administration before receiving the alternate treatment in a counterbalanced manner. For full details refer to Supplementary material.

In the case of `O=C(c1ccc(F)c(F)c1)N1CCN2C(=O)c3ccccc3[C@@]12c1ccc(Cl)cc1` [ML375, (S)-9b-(4-chlorophenyl)-1-(3,4-difluorobenzoyl)-2,3-dihydro-1H-imidazo[2,1-a]isoi ndol-5(9bH)-one], on rat M2 mAChR, the “effect on ACh affinity” value is “no significant effects”. Moreover, the “effect on ACh potency” value at rat M1 mAChR and on rat M4 mAChR was “no significant effects” throughout. On σ1 receptor, the “effect on [3H](+)-pentazocine binding” value is “no apparent effect”. For the same compound, the “latency to first water response vs vehicle” value in data set [1] (30 mg/kg p.o. at 3 h, 11 h and 27 h prior to testing, P = 0.037) is on record as “extends the latency”. For the same compound, the “ethanol responding vs vehicle” value in data set [1] (30 mg/kg p.o. at 27 h, 11 h and 3 h prior to test, 10% ethanol, FR3, P = 0.0015) is recorded as “significantly reduced ethanol responding”. Also, the “responding for water vs vehicle” value in data set [1] (30 mg/kg p.o. at 27 h, 11 h and 3 h prior to test, P = 0.98) is “no difference”. For the same compound, the “latency to first ethanol reward vs vehicle” value in data set [1] (30 mg/kg p.o., P = 0.73) is given as “no difference”.

For the origin of these results see article PMC5983544, “Muscarinic M5 receptors modulate ethanol seeking in rats” (Neuropsychopharmacology, 2018).
